Marks after values point to notes of the source that are not given here. Non-standard residues stand in square brackets, D forms with d. Residues, ends and D or L forms follow the SMILES beside them. *: point of attachment. X1 = CC1(C)C(=CC=CC=CC=CC2=[N+](CCCCCC(=O)*)c3ccc4ccccc4c3C2(C)C)N(CCCCS(=O)(=O)[O-])c2ccc3ccccc3c21; Cha = N[C@@H](CC1CCCCC1)C(=O)O
Key:
[1] = 40 patients with malignant glioblastoma, 1 to 48 mg; ref [15],[33]; cited from earlier work
[2] = test system: oral and oropharyngeal squamous cell carcinoma (OSCC, OPSCC); assay: Sensitivity of FG001 optical imaging for tumor detection, verified by histology; format: in vivo, human; details: 16 patients with OSCC/OPSCC; FG001 36, 16 or 4 mg i.v. the evening prior to surgery; 11 optically guided biopsies and 5 cross-section samples
Procedure: For 11 out of 16 patients, a single biopsy was sampled from the resected tumor specimen ex-vivo on the back-table from a region with a bright fluorescence presented by the imaging system. For the remaining 5 patients, the tumors were cross-sectioned for detailed optical imaging and histopathological processing (see next section). The back-table imaging was performed with the same settings (Image profile: NIR_highcontrast or NIR_contrast, excitation laser: 805 nm) and with no other light sources, always with a perpendicular angle to the table, and a camera-to-tumor distance of 20 centimeters. The biopsies were taken with biopsy-punch-forceps, hereafter formalin (4%) fixed, paraffin-embedded (i.e. FFPE), and evaluated with histopathological assessment by a pathologist for the presence of cancer tissue - concluding on cancer-positive or negative.
For 5 out of the 16 patients, the resected tumor specimens were cut in half, sliced at the OR, and imaged with the Elevision® imaging system. The specimens underwent routine pathologic processing at the Department of Pathology. […] To evaluate the overlap between fluorescence signal from FG001, uPAR-expression, and tumor tissue, the cryosections were first fluorescently scanned with an Amersham Typhoon^TM scanner from Cytiva and, thereafter, stained using immunohistochemistry for uPAR and Cytokeratin (CK), and hematoxylin and eosin (H&E) stained. […]

[3] = test system: oral and oropharyngeal squamous cell carcinoma (OSCC, OPSCC); assay: Intraoperative near-infrared optical imaging: tumor-to-background ratio and absolute intensities (Elevision); format: in vivo, human; details: for TBR (mean (range)): preoperative NIR image, max tumor ROI / mean of 3 background ROIs, Elevision, 805 nm
Procedure: (§1) All patients were treated surgically according to the national guidelines. The primary investigator (PI) was part of the surgical team in all procedures. A surgical robot system (DaVinci Si, Intuitive) was used for TORS in the two patients with OPSCC. The surgeons were not allowed to resect tissue based on intraoperative detected fluorescence signal but complied with standard of care. Depending on the clinical TNM staging (based on clinical examination, ultrasonography examination of the neck, and MRI or CT scans), either sentinel lymph node biopsy (using 99^mTc-nanocoll) or neck dissection was performed for neck management. Post-surgical (chemo)radiation was prescribed according to national guidelines at a multidisciplinary conference. The pre-, intraoperative, and ex-vivo optical images were obtained using the open-field imaging system Elevision® model VS3 Iridium-Visionsense Infrared (IR) Fluorescence, Vision System (Medtronics, USA). Image profile: NIR_highcontrast or NIR_contrast, excitation laser: 805 nm. The Elevision IR system generates real-time optical imaging merged with the color video recording on a viewer screen. The intensity-dependent multi-color NIR overlay was presented in parallel with white-light and NIR grayscale images. The camera head was mounted on a maneuverable arm over the surgical field with sterile draping. The preferred camera-to-tumor distance was 20-40 centimeters, but the system also allows positioning at closer or longer distances to areas of interest. For optimal imaging, all other light sources in the OR were switched off and window blinds were closed. The imaging system itself provides powerful white light illumination of the surgical field when imaging is performed.
All images and videos were stored in JPG- and mp4-file format. The following images were captured for all 16 patients who completed the trial: 1) Preoperative images of the tumor. 2) Intraoperative images of the tumor and metastatic lymph nodes. 3) Images of the surgical cavity (i.e., tumor bed) after tumor resection. 4) Ex-vivo images of the resected tumor specimen on the back-table, see Figure 2.
For imaging analysis, the TBR was calculated as the maximum fluorescence intensity of the tumor region of interest (ROI) divided by the mean fluorescence intensity of 3 background ROIs on a preoperative NIR image by use of an in-house designed Python-based annotation tool. The tumor ROIs were drawn based on information from intraoperative clinical observations, and preoperative white-light and NIR images. Background ROIs were defined within the soft tissues adjacent to the tumor. The absolute numeric intensities were obtained by adjusting the fluorescence intensity for the specific gain values applied by the imaging system.

uPAR = target: T1, uPAR (Homo sapiens, UniProt Q03405); assay: Morphological co-localization between FG001 signal, tumor tissue and uPAR expression (Typhoon/Odyssey scan, IHC, H&E)
T1 construct: from tissue
Text: For 5 out of the 16 patients, the resected tumor specimens were cut in half, sliced at the OR, and imaged with the Elevision® imaging system. The specimens underwent routine pathologic processing at the Department of Pathology. The slices were frozen with a Milestone PrestoCHILL cryoembedder/freezer and, cut into 8 µm tissue slices with a Leica® CM1860 Cryostat and placed on glass slides. To evaluate the overlap between fluorescence signal from FG001, uPAR-expression, and tumor tissue, the cryosections were first fluorescently scanned with an Amersham Typhoon^TM scanner from Cytiva and, thereafter, stained using immunohistochemistry for uPAR and Cytokeratin (CK), and hematoxylin and eosin (H&E) stained. The Typhoon^TM scanner settings were PMT: 350-500 V and excitation wavelength: 785 nm. The immunohistochemical staining for uPAR was performed with the antibody GTX100467 (Gentex, USA), and Cytokeratin with M351529-2 Dako (Agilent). The H&E stain was performed according to standard practice. All tissue slides were scanned with the high-resolution AxioScan 7 (Zeiss, Germany). […]
The different stained tissue sections were aligned using the BigWarp plugin in Fiji (NIH, open-source version: 1.54f) software. A pathologist delineated the tumors, and the fluorescence imaging generated from the Typhoon scanner was overlayed on the HE stains using ImageJ (NIH, open source), (see Figure 3M).

[4] = test system: neck lymph node metastasis; assay: Optical visualization of neck lymph node metastasis; format: in vivo, human
Procedure: as §1
The exploratory endpoints were defined as: 1) Morphological co-localization between optical signal, tumor tissue, and target (i.e. uPAR) expression, 2) Optical visualization of local neck lymph node metastasis, and 3) Longitudinal investigation of the optimal signal intensity for intraoperative imaging.

[5] = test system: oral and oropharyngeal squamous cell carcinoma (OSCC, OPSCC); assay: Longitudinal preoperative transoral imaging of the tumors; format: in vivo, human
Procedure: For 3 out of the 16 patients, longitudinal preoperative imaging of their tumors was captured during the period before surgery. […] Minor deviations from the protocol requirements were due to prioritization of the patients' night sleep before surgery - therefore, no images were taken in the timespan between 8 and 14 hrs post-injection. All longitudinal images were captured with the same camera-to-tumor distance (app. 25-35 cm) in a darkened room. The TBR value was calculated for all time points and plotted as a function of time, see Figure 4 for a case example.

T1 sequence (Q03405 23-335): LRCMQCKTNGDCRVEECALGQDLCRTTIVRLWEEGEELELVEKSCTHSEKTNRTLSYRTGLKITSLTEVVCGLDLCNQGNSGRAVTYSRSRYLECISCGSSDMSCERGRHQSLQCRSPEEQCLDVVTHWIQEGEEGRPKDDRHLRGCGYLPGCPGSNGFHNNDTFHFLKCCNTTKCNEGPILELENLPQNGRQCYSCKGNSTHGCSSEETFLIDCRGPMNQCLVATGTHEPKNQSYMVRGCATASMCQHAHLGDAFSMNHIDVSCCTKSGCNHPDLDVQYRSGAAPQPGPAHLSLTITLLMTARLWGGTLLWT

**Q.** Which “Grade I drug-related adverse events, number” value [1] does the source give for `CC(C)C[C@H](NC(=O)[C@H](Cc1ccc(O)cc1)NC(=O)[C@@H](CCCNC(=N)N)NC(=O)[C@@H](CO)NC(=O)[C@H](Cc1ccccc1)NC(=O)[C@H](CC1CCCCC1)NC(=O)[C@H](CC(=O)O)NC(=O)[C@H](CCC(=O)O)NC(=O)[C@H](CCC(=O)O)NC(=O)CCCCC[N+]1=C(C=CC=CC=CC=C2N(CCCCS(=O)(=O)[O-])c3ccc4ccccc4c3C2(C)C)C(C)(C)c2c1ccc1ccccc21)C(=O)N[C@@H](Cc1c[nH]c2ccccc12)C(=O)N[C@@H](CO)C(=O)O` [FG001, ICG-Glu-Glu-AE105] (X1-EED[Cha]F[dS][dR]YLWS-OH; N-terminus and C-terminus assumed) here?
**A.** Its value is 3.

**Q.** And the “Grade II drug-related adverse events, number” value [1]?
**A.** Its value is 1.

**Q.** And the Safety and tolerability [1]?
**A.** The Safety and tolerability was “safe and well-tolerated”.

**Q.** What about the “Sensitivity for tumor detection verified by histology” value [2] of the same compound?
**A.** The value was 100%.

**Q.** What about the “TBR (mean (range))” value ([3]; FG001 4 mg i.v., n = 4 completed) of the same compound?
**A.** The value was 3.07 (2.30 - 3.48)*.

**Q.** What about the “TBR (mean (range))” value ([3]; FG001 16 mg i.v., n = 8) of the same compound?
**A.** The value was 2.91 (2.02 - 3.95).

**Q.** And the “TBR (mean (range))” value ([3]; FG001 36 mg i.v., n = 4)?
**A.** The value was 3.08 (2.68 - 3.46).

**Q.** And the “TBR (contrast for demarcation of tumors), consistently” value ([3]; all patients, even at the lowest dose)?
**A.** Its value is “above 2”.

**Q.** What about the “Optical signal in resected cancer tissues after formalin fixation and paraffin embedding” value (uPAR; days following surgery) of the same compound?
**A.** The value was “preserved”.

**Q.** What about the “Co-localization between uPAR-expression and FG001 fluorescence signal” value (uPAR; microscopic fluorescence imaging, tumor cross-sections of 5 patients across the 3 dose cohorts) of the same compound?
**A.** The value was “high level of co-localization”.

**Q.** And the “Intraoperative visualization of clinical neck metastasis” value ([4]; during neck dissection, confirmed on back table and by pathology)?
**A.** The value was “clearly visualized”.

**Q.** What about the “Uptake in adjacent unaffected lymph nodes” value ([4]; no systematic imaging of lymph nodes without clinical evidence of metastasis) of the same compound?
**A.** Its value is “No uptake”.

**Q.** What about the “Optical signal of harvested sentinel nodes” value ([4]; two cases with SNB staging, nodes all negative for metastatic deposits on final pathology) of the same compound?
**A.** The value was “absent or weak optical signal”.

**Q.** And the “Time post-injection after which tumor-specific signals could be detected” value ([5]; FG001 16 mg i.v., three awake patients, transoral)?
**A.** The value was 2 h.

**Q.** And the “TBR in longitudinal imaging” value ([5]; FG001 16 mg i.v., three awake patients, transoral, from 2 hrs until 19 hrs post-injection)?
**A.** The value was “above 2”.

**Q.** What about the “Window for drug administration prior to surgery” value ([5]; indicated by the longitudinal data for tumor imaging) of the same compound?
**A.** The value was 2 to 19 h.
